This note sets out measurements from patent US20240216312A1, “PPAR-AGONISTS FOR USE IN THE TREATMENT OF LIVER FAILURE” (Genfit, priority 2021, published 2024).

Read-outs that look alike come from different tables or passages of the source.

Data set [1] deals with LPS/GaIN acute liver failure, C57BL/6J mice. In words: LPS/GalN model of acute liver failure in mice, hepatic gene expression, serum cytokines and albumin. The settings on record: 3 mg/kg/day oral 3 days before LPS/GaIN, 4 h after injection. The format is in vivo, mouse.
The subject of data set [2] is THP1 macrophages. In words: LPS (Klebsiella pneumoniae) activation of THP1 macrophages, MCP1 and TNFα secretion (HTRF). The format is cell-based, human. The procedure:
(§1) In order to test the efficacy of the compounds on macrophage activation and pro-inflammatory cytokine production, 2.5×10^4 THP-1 cells were cultured in a 384-well plate and treated with 100 ng/mL PMA (#P8139, Sigma) for 24 h to induce differentiation into macrophages.
Then, medium was removed and FBS-deprived medium containing 1 or 10 μM compound was added for 24 h. Finally, THP1 macrophages were stimulated for 6 h with 100 ng/mL LPS (Klebsiella pneumoniae, #L4268, Sigma-Aldrich).
Monocyte chemoattractant protein 1 (MCP1) and Tumor necrosis α (TNFα) were measured in cell supernatants by Homogeneous Time Resolved Fluorescence (HTRF, #62[…] for TNFα, and 62HCCL2PEG for MCP1, Cisbio). Fluorescence was measured with Infinite 500 (#30019337, Tecan) to determine the concentration of cytokines.
In order to evaluate the effect of the compounds according to the invention on LPS-induced cytokines production by macrophages, the percentage of inhibition over the vehicle condition were calculated for each compound at 1 and 10 μM.
In general terms: Time-resolved FRET reads energy transfer from a long-lived donor to a nearby acceptor.

Data set [3] concerns LPS-induced endotoxemia, Sprague Dawley rats. Put plainly: LPS-induced endotoxemia in rats, serum IL6 and IL1β (ELISA). The settings on record: rat, 3 mg/kg/day oral 3 days before LPS 1 mg/kg i.p., 3 h after LPS. The format is in vivo. The procedure:
To evaluate the efficacy of the compounds to reduce the cytokine production in response to LPS-induced endotoxemia, male Sprague Dawley rats of 250-275 g from Janvier Labs (France) received a single intraperitoneal injection of 1 mg/kg LPS (Escherichia coli 0111:B4, #L2630, Sigma).
Cpd.1 (3 mg/kg/day) or vehicle (Labrafil M 1944 CS, #3063, Gattefossé) was administered by oral gavage during the 3 days before LPS injection. Rats were euthanized by cervical dislocation 3 hours after treatment. Blood samples were obtained from retro-orbital sinus puncture on animals slightly asleep with isoflurane (Isoflurin 1000 mg/g, GTIN 03760087152678, Axience) just before sacrifice.
The serum concentrations of interleukin-6 (IL6) and interleukin-1β (L1β) were determined by ELISA (SR6000B and SRLB00, respectively, R&D Systems).

Data set [4] concerns THP-1 cells. In words: PMA-induced differentiation of THP-1 monocytes into macrophages, TNFα and MCP1 secretion (HTRF). The format is cell-based. The settings on record: Homo sapiens, PMA-stimulated THP1 monocytes, 24 h. How it is done: In order to test the efficacy of the compounds to inhibit the activation of the immune system, we used the human monocytic cell line THP-1 (Sigma). THP1 monocytes were cultured in RPMI 1640 with L-glutamine medium (#10-040-CV, Corning) supplemented with 10% fetal bovine serum (FBS, #10270, Gibco), 1% penicillin/streptomycin (#15140, Gibco) and 25 mM Hepes (H0887, Sigma) in a 5% C02 incubator at 37° C.
To evaluate the effect of the compounds on monocyte differentiation, 2.5×10^4 THP-1 cells were cultured for 24 h in a 384-well plate in FBS-deprived culture medium containing Cpd.1 in dose ranges, as well as 5 or 100 ng/mL phorbol 12-myristate 13-acetate (PMA, #P8139, Sigma), as indicated, to induce differentiation into macrophages.
Tumor necrosis α (TNFα) and monocyte chemoattractant protein 1 (MCP1) were measured in cell supernatants by Homogeneous Time Resolved Fluorescence (HTRF, #62[…] for TNFα, and 62HCCL2PEG for MCP1, Cisbio). Fluorescence was measured with Infinite 500 (#30019337, Tecan) to determine the concentration of cytokines.

Data set [5] concerns HepG2 cells. Put plainly: Staurosporin-induced apoptosis in HepG2 cells, caspase 3/7 activity. The format is cell-based, human. Particulars: 16 h pre-treatment, then 10 μM staurosporin 4 h. How it is done: In order to evaluate the effect of the compounds on human hepatocytes that undergo a cellular stress induced by staurosporin, the human hepatoblastoma-derived HepG2 cell line (ECACC, #85011430, Sigma-Aldrich) was cultured in high-glucose DMEM medium (#41965, Gibco, France) supplemented with 10% of fetal bovine serum (FBS, #10270, Gibco), 1% penicillin/streptomycin (#15140, Gibco), 1% sodium pyruvate (#11360, Gibco) and 1% MEM non-essential amino acids (#11140, Gibco) in a 5% CO2 incubator at 37° C.
To evaluate caspase 3/7 activity, which is a surrogate marker of apoptosis, 1.5×10^4 cells were plated in a 384-well plate (#781080, Greiner, France). After cell adherence (8 hours), cells were serum starved for 16 h in the presence of 0.3 μM of compounds or vehicle. Cpd.1 was also used at 3 and 10 μM. Thereafter, cells were treated with 10 μM staurosporin (#569397, Sigma-Aldrich, Germany) supplemented with compound for additional 4 hours before cell lysis and caspase activity measurement.
Caspase 3/7 activity was measured using Caspase Glow™ 3/7 assay (#G8093, Promega, USA). Luminescence was measured using a Spark microplate reader (#30086376, Tecan, USA). The amount of luminescence (RLU) directly correlates with caspase 3/7 activity.

In data set [6] the test system is CLP induced polymicrobial sepsis, C57BL6J mice. Put plainly: Cecal ligation and puncture (CLP) sepsis model in mice, survival. The format is in vivo. Particulars: mouse CLP. How it is done: This study aims to investigate the efficacy of Cpd.1 in cecal ligation and puncture (CLP) model in C57BL6J (BL6) male mice. The efficacy of the test compound was evaluated based on the survival rate of the animals within the study period.
C57BL6J male mice (supplier Janvier—France) at 9 weeks of age and weighing 23-25 g on arrival were anesthetized with 250 μL of xylazine/ketamine solution (20 mg/100 g body weight) by intraperitoneal route. A 1-1.5 cm abdominal midline incision was made, and the caecum was located and tightly ligated at half the distance between distal pole and the base of the cecum with 4-0 silk suture (mild grade). The caecum was punctured through-and-through once with a 21-gauge needle from mesenteric toward antimesenteric direction after medium ligation. A small amount of stool was extruded to ensure that the wounds were patent. Then the cecum was replaced in its original position within the abdomen, which was closed with sutures and wound clips. Mice were followed for body weight evolution and mortality rate until […].
Cpd.1 or vehicle (Labrafil M 1944 CS, #3063, Gattefossé) was administered at 0.3 mg/kg, p.o. for three days before CLP surgery. The day of CLP (day 0), Cpd.1 was administrated 1 h before surgery and pursued daily until day 6. Experiment was terminated at day 7. […]
Body weight and survival rate were measured for 7 days.

In data set [7] the test system is LPS-induced endotoxemia, Sprague Dawley rats. In words: LPS-induced endotoxemia in rats, hepatic markers and serum TNFα. The format is in vivo. The settings on record: rat, 3 mg/kg/day oral 3 days before LPS, 3 h after LPS.
In data set [8] the test system is THP1 macrophages. Put plainly: LPS (E. coli) activation of THP1 differentiated macrophages, TNFα and MCP1 secretion. The format is cell-based, human. Particulars: compound 24 h, then 100 ng/mL LPS E. coli 6 h. The procedure:
as §1
Then, medium was removed and FBS-deprived medium containing the compound of formula (I) was added for 24 h. Finally, THP1 macrophages were stimulated with 100 ng/mL LPS (E. coli 055:B5, #L4005, Sigma) for 6 h.

Take `COC(CCc1cc(C)c(OC(C)(C)C(=O)O)c(C)c1)c1ccc(OC(F)(F)F)cc1` (stereo not shown) [Cpd. 1, 2-[4-(3-methoxy-3-(4-(trifluoromethoxy)phenyl)propyl)-2,6-dimethylphenoxy]-2-methylpropanoic acid]: in data set [1] (mouse liver), the “decrease of hepatic Ccl2 mRNA expression” value is recorded as 52%, the “decrease of hepatic IL1b mRNA expression” value came out at 46%, the “decrease of hepatic IL6 mRNA expression” value stood at 52% and the “decrease of hepatic TNF mRNA expression” value is recorded as 40%. Further, in data set [1] (mouse liver), the “reduction of hepatic Cd68 mRNA expression” value is 41%. In data set [1] (mouse serum), the “reduction of circulating CCL2 level compared to vehicle” value came to 59%, the “reduction of circulating IL6 level compared to vehicle” value is 62% and the “reduction of circulating TNFα level compared to vehicle” value was 51%. In data set [2] (Homo sapiens, THP-1, 1 μM, 24 h, then LPS Klebsiella 6 h, read-out: % inhibition of MCP1 secretion over mean Veh.), the inhibition – broadly, the relative decrease from the control value, in per cent – at 1 µM turned out to be 108%. Moreover, the inhibition at 10 µM in data set [2] (Homo sapiens, THP-1, 10 μM, 24 h, then LPS Klebsiella 6 h, read-out: % inhibition of MCP1 secretion over mean Veh.) worked out at 120%. In data set [2] (THP1 macrophages, in words, concentration not given), the “production of MCP1 induced by LPS Klebsiella” value is listed as “overpassing the untreated condition”. Besides, in data set [3], the “reduction of serum IL1β level” value came out at 31% and the “reduction of serum IL6 level” value was 40%. Further, in data set [4] (read-out: inhibition of MCP1 content in the supernatant), the inhibition at 1 µM was roughly 50%. Further, the inhibition at 1 µM in data set [4] (read-out: inhibition of TNFα content in the supernatant) is roughly 50%. Also, the “reduction of staurosporin-induced caspase activity” value in data set [5] (0.3 μM to 10 μM) is on record as “dose-dependent manner”. Besides, in data set [5] (Homo sapiens, HepG2, 0.3 μM, read-out: % Inhibition of caspase activity over mean Veh.), the inhibition at 0.3 µM came out at 26%. In addition, the “side effects after each administration” value in data set [6] (0.3 mg/kg p.o.) is on record as “No side effect”. Also, the “increase in survival rate compared to CLP+Vehicle group” value in data set [6] (0.3 mg/kg p.o. from 3 days before surgery, daily, Day 7) is reported as 47%. In addition, the “serum total bilirubin level compared to vehicle” value in data set [7] is reported as “completely restored”. Moreover, the “reduction of TNFα secretion” value in data set [8] was “potent at reducing”. In data set [8] (all doses tested), the “reduction of MCP1 secretion” value was “overpassing the untreated condition”.
